Test results taken from PubChem BioAssay (NCI).
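GI50 = concentration required for 50% inhibition of growth. Definition used: TGI = concentration required for complete inhibition of growth.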

How the values were obtained:
Test in all cases: growth of human tumour cells (NCI), 384-well format
[1] = tested on: K-562 leukemia
[2] = tested on: PC-3 prostate
[3] = tested on: M14 melanoma
[4] = tested on: EKVX NSCLC
[5] = tested on: CCRF-CEM leukemia
[6] = tested on: SK-MEL-5 melanoma
[7] = tested on: MDA-MB-468 breast
[8] = tested on: MOLT-4 leukemia
[9] = tested on: HL-60(TB) leukemia
[10] = tested on: NCI/ADR-RES ovarian
[11] = tested on: BT-549 breast
[12] = tested on: LOX IMVI melanoma
[13] = tested on: NCI-H226 lung
[14] = tested on: HOP-92 NSCLC
[15] = tested on: SF-295 CNS
[16] = tested on: SR leukemia
[17] = tested on: IGROV1 ovarian
[18] = tested on: T-47D breast
[19] = tested on: OVCAR-8 ovarian
[20] = tested on: MALME-3M melanoma
[21] = tested on: HOP-62 NSCLC
[22] = tested on: UACC-62 melanoma
[23] = tested on: 786-0 renal
[24] = tested on: HS 578T breast
[25] = tested on: A498 renal
[26] = tested on: SK-MEL-28 melanoma
[27] = tested on: SNB-75 CNS
[28] = tested on: DU-145 prostate
[29] = tested on: UACC-257 melanoma
[30] = tested on: UO-31 renal
[31] = tested on: OVCAR-5 ovarian
[32] = tested on: HCT-15 colon
[33] = tested on: RXF 393 renal
[34] = tested on: MDA-MB-435 melanoma
[35] = tested on: NCI-H23 lung
[36] = tested on: NCI-H460 NSCLC
[37] = tested on: COLO 205 colon
[38] = tested on: MCF7 breast
[39] = tested on: SK-OV-3 ovarian
[40] = tested on: KM12 colon
[41] = tested on: NCI-H322M lung
[42] = tested on: RPMI-8226 leukemia
[43] = tested on: SW-620 colon
[44] = tested on: MDA-MB-231 breast
[45] = tested on: SN12C renal
[46] = tested on: SF-539 CNS
[47] = tested on: NCI-H522 lung
[48] = tested on: SF-268 CNS
[49] = tested on: CAKI-1 renal
[50] = tested on: A549 NSCLC
[51] = tested on: SNB-19 CNS
[52] = tested on: HT29 colon
[53] = tested on: TK-10 renal
[54] = tested on: ACHN renal
[55] = tested on: HCC-2998 colon
[56] = tested on: OVCAR-3 ovarian
[57] = tested on: OVCAR-4 ovarian

SMILES: Cc1cccc(N(C)C(=O)[C@@H]2[C@H](O)CCN2c2nc(C)cc(C(F)(F)F)c2C#N)c1
- GI50 [1]: 33.1 µM
- TGI [1]: > 100 µM
- GI50 [2]: 24.5 µM
- TGI [2]: 65.3 µM
- GI50 [3]: 43.7 µM
- TGI [3]: > 100 µM
- GI50 [4]: 24.4 µM
- TGI [4]: 58.1 µM
- GI50 [5]: 19.4 µM
- TGI [5]: 36 µM
- GI50 [6]: 20.7 µM
- TGI [6]: 37.3 µM
- GI50 [7]: 20 µM
- TGI [7]: 38.5 µM
- GI50 [8]: 14.8 µM
- TGI [8]: 28.2 µM
- GI50 [9]: 19.4 µM
- TGI [9]: 33.8 µM
- GI50 [10]: 23.5 µM
- TGI [10]: 63.8 µM
- GI50 [11]: 29.4 µM
- TGI [11]: 65.4 µM
- GI50 [12]: 30.7 µM
- TGI [12]: 80.8 µM
- GI50 [13]: 21 µM
- TGI [13]: 64.8 µM
- GI50 [14]: 22.9 µM
- TGI [14]: 61 µM
- GI50 [15]: 21.4 µM
- TGI [15]: 52 µM
- GI50 [16]: 15.9 µM
- TGI [16]: 30 µM
- GI50 [17]: 28 µM
- TGI [17]: 71.7 µM
- GI50 [18]: 37 µM
- TGI [18]: > 100 µM
- GI50 [19]: 32.9 µM
- TGI [19]: > 100 µM
- GI50 [20]: 22 µM
- TGI [20]: 66.7 µM
- GI50 [21]: 27.2 µM
- TGI [21]: 91.7 µM
- GI50 [22]: 38.1 µM
- TGI [22]: > 100 µM
- GI50 [23]: 33.3 µM
- TGI [23]: > 100 µM
- GI50 [24]: 21 µM
- TGI [24]: 52.3 µM
- GI50 [25]: 28.3 µM
- TGI [25]: 96.1 µM
- GI50 [26]: 43.3 µM
- TGI [26]: > 100 µM
- GI50 [27]: 28.4 µM
- TGI [27]: 91.2 µM
- GI50 [28]: 31.3 µM
- TGI [28]: 90.7 µM
- GI50 [29]: 35.3 µM
- TGI [29]: 76.6 µM
- GI50 [30]: 32.5 µM
- TGI [30]: > 100 µM
- GI50 [31]: 35.2 µM
- TGI [31]: > 100 µM
- GI50 [32]: 32 µM
- TGI [32]: > 100 µM
- GI50 [33]: 21.5 µM
- TGI [33]: 58.6 µM
- GI50 [34]: 37.5 µM
- TGI [34]: > 100 µM
- GI50 [35]: 34.4 µM
- TGI [35]: > 100 µM
- GI50 [36]: 30.2 µM
- TGI [36]: 87 µM
- GI50 [37]: 37.9 µM
- TGI [37]: > 100 µM
- GI50 [38]: 27.9 µM
- TGI [38]: 71.6 µM
- GI50 [39]: 35 µM
- TGI [39]: 96.4 µM
- GI50 [40]: 33.3 µM
- TGI [40]: > 100 µM
- GI50 [41]: 36.4 µM
- TGI [41]: > 100 µM
- GI50 [42]: 13.6 µM
- TGI [42]: 26.7 µM
- GI50 [43]: 53.3 µM
- TGI [43]: > 100 µM
- GI50 [44]: 47.9 µM
- TGI [44]: > 100 µM
- GI50 [45]: 30.6 µM
- TGI [45]: > 100 µM
- GI50 [46]: 37.2 µM
- TGI [46]: > 100 µM
- GI50 [47]: 28.1 µM
- TGI [47]: 70 µM
- GI50 [48]: 38.9 µM
- TGI [48]: > 100 µM
- GI50 [49]: 36.1 µM
- TGI [49]: > 100 µM
- GI50 [50]: 26.9 µM
- TGI [50]: > 100 µM
- GI50 [51]: 37.6 µM
- TGI [51]: > 100 µM
- GI50 [52]: 32.7 µM
- TGI [52]: > 100 µM
- GI50 [53]: 51.4 µM
- TGI [53]: > 100 µM
- GI50 [54]: 31 µM
- TGI [54]: > 100 µM
- GI50 [55]: 24.8 µM
- TGI [55]: 54.4 µM
- GI50 [56]: 20.1 µM
- TGI [56]: 43.5 µM
- GI50 [57]: 30.4 µM
- TGI [57]: 73 µM
